Patent US5990083A, “Multicatalytic protease inhibitors” (Cephalon, Inc., priority 1997, dated 1999)

How the values were obtained:
[1] = system: unweighting atrophy of the soleus muscle; test: Inhibition of unweighting atrophy of the soleus muscle in juvenile rats (muscle protein content); format: in vivo, rat; conditions: for Protein, End (day 3 of unweighting) / Effect (%), change in protein content during day 3 of unweighting: Table 2; for Protein, End (day 3 of unweighting): 24 hours after in situ soleus injection at day 2 of unweighting, mersalyl 200 nM aqueous; for Protein, End (day 3 of unweighting) / Protein, Treatment (unweighted muscle): MCP inhibitor 1 mM in DMSO; for Effect (%), change in protein content during day 3 of unweighting: End versus Start (estimated day 2 content); for Effect (%) on unweighted muscle protein / Protein, Treatment (unweighted muscle): Table 3; for Effect (%) on unweighted muscle protein: Treatment versus Vehicle contralateral muscle; for Protein, Treatment (unweighted muscle): treated soleus, contralateral muscle received vehicle, mersalyl 200 nM
Description: The effect of several inhibitors on the unweighting atrophy of the soleus muscle in juvenile rats was determined. See Tischler, M. E. (1990) Metabolism 39/7: 756-763 (hereinafter "Tischler--1990") for a general discussion of the procedure.
(§1) Juvenile female Sprague-Dawley rates (80-90 g) were tail-cast, hind limb suspended as in Jetspers, S. R. and Tischler, M. E., (1984) J. Appl. Physiol. 57: 1472-1479. The animal's hind limbs were elevated above the floor of the cage with each animal housed individually. Animals had free access to food and water, and were weighed at the time of suspension and at time of termination. During the suspension period the animals were checked daily to ensure that their toes were not touching the floor of the cage, and that there was no swelling of the tail due to the cast.
Each experiment began with the suspension of 20 rats which were randomly divided into 4 groups of 5 animals each. Group A was suspended for just 2 days and provided baseline data to approximate the soleus muscle size in other animals suspended for longer times. Average body weights for the groups at the outset of the study were compared and used as a correction factor for body size differences. […] See Tischler--1990. At 2 days after unweighting commenced, an aqueous solution of mersalyl (200 nM; 4 μl/100 g initial body wt) was injected into one soleus, as described previously. The contralateral muscle was injected with a similar volume of 0.9% saline ("Vehicle"). The animals were maintained under Innovar-vet (10 μl/100 g body wt) tranquilization during the in situ injection procedure. After the injections, the animals were suspended for an additional 24 hours and the soleus was removed. Groups C and D for each experiment were used for testing each of two different embodiments of the disclosed compounds.
(§2) Animals were treated as in group B, except that 1 mM MCP inhibitor, contained in dimethysulfoxide (DMSO), was injected into the soleus of one leg and DMSO only into the contralateral soleus. Thus each experiment consisted of two control groups and the testing of MCP inhibitors of the invention. The completion of five such experiments with different pairs of inhibitors provided for an "n" value of 10 for testing each MCP inhibitor and with each tested in two different shipments of animals.
(§3) After the animal was sacrificed, the soleus was excised, trimmed of fat and connective tissue, and carefully weighed. The muscle was then homogenized in 10% trichloroacetic acid (TCA) and the precipitated protein pelleted by centrifugation. The pellet was then washed once with 10% TCA and once with ethanol:ether (1:1). The final pellet was solubilized in 4 ml of 1N sodium hydroxide. The sample was then analyzed for protein content by the biuret procedure, using albumin as a standard.
(§4) The effect of MCP inhibitors on total muscle protein content was examined primarily by paired comparison with the untreated contralateral muscle. The ratio of contents was calculated and then analyzed statistically by analysis of variance ("ANOVA"). The left leg was always the treated leg so that the protein content ratios could be compared to the non-treated control animals as well. In this way, a significant difference can be shown by comparing the protein content of the two legs, as well as the relative effectiveness of the tested MCP inhibitors. A paired student test was also performed for the effect of each separate treatment. The non-treated control data also provided an estimate of protein content of day 2. This allowed approximation of the protein changes over the 24 hours of treatment for each of the Groups B, C, and D.

human MCP = biological target: T1, human MCP (Homo sapiens, UniProt P28074+Q99436); test: Determination of IC50 values for MCP inhibitors (chymotrypsin-like or trypsin-like activity of MCP); format: biochemical; conditions: Table 5, first series; enzyme incubated with inhibitor 15 minutes at 37° C. prior to substrate
T1 construct: Samples of human liver and brain obtained post-mortem were used for isolation and partial purification of MCP; from tissue; host or cells: human liver and brain, post-mortem
Description: Samples of human liver and brain obtained post-mortem were used for isolation and partial purification of MCP by ion-exchange chromatography, ammonium sulfate precipitation, and gel filtration (e.g., Driscoll and Goldberg, Proc. Natl. Acad. Sci. 86, 787-791 (1989); Yamamoto et al., Biochim, Biophys. Acta 882, 297-304 (1986). For either starting material, tissue was homogenized in 10 volumes of 20 mM Tris-HCl (pH 7.5) containing 20% glycerol. Following centrifugation at 40,000×g for 30 minutes, proteolytic activity of the chymotrypsin-like component of MCP could be detected in the supernatant (see below). The supernatant was fractionated on a DEAE-Sepharose Fast Flow column equilibrated in homogenization buffer. For each liter of supernatant, 250 ml of resin was used. Following sample loading, the column was washed with ^~ 10 volumes homogenization buffer, and proteins were eluted with a linear NaCl gradient of from 0 to 400 mM (21 for 250 ml resin). Fractions were assayed for MCP activity, and the active fractions were pooled and subjected to precipitation with (NH4)2 SO4 at 80% saturation. Precipitated proteins were collected by centrifugation, resuspended in homogenization buffer, and loaded on a Sephacryl S300HR column (500 ml resin volume) that had been standardized using bovine serum albumin (68 kDa). A single peak of MCP activity was eluted with a molecular weight of ^~ 650 kDa. This preparation was free of other measurable proteolytic activities and maintained its MCP activity upon storage at 4° C. for >6 months. This preparation was used for most of the experiments. Further fractionation of the preparation on an hydroxyapatite-Ultrogel column (Yamamoto et al., supra) yielded a more highly purified enzyme, which according to denaturing SDS-polyacrylamide gel electrophoresis was comprised of the expected >10 subunits ranging in Mr from 20 to 35 kDa.
The procedure for MPC isolation described above generated an enzyme complex whose proteolytic activities were latent, but which could be activated by addition of low concentrations (0.02-0.05%) of SDS (Yamamoto et al., supra). The chymotrypsin-like activity was assayed according to the following procedure: in 96 well microtiter plates, human MCP was diluted 4 to 10-fold in homogenization buffer containing 0.04% SDS. A calorimetric substrate MeOSuc-EVKM-para-nitroanilide (methoxysuccinyl-Glu-Val-Lys-Met-pNa), purchased from Bachem Bioscience Inc., King of Prussia, Pennsylvania was added to a final concentration of 100 μM from a stock solution of 10 mM in dimethylsulfoxide. Reaction volumes were 200 μl per well. After incubation for various periods of time at 37° C., the concentration of free pNa was determined on a Biotech EL-340 microplate reader, reading absorption at 490 nm. Protease activity was determined under conditions in which substrate hydrolysis increased linearly with time and the change in absorption was proportional to the concentration of free pNa. Alternatively, a fluorogenic substrate was used, methoxysuccinyl-Phe-Leu-Phe-amidomethylcoumarin (Enzyme Systems Products, Dublin, Calif.), and the change in fluorescence monitored at an excitation of 390 nm, and an emission at 460 nm.
The trypsin-like activity of human MCP was assayed as described above with the following modifications. Reactions were carried out in Tris-glycerol buffer (pH 9.5) supplemented with 1 mM 2-mercaptoethanol, and the substrate was a fluorogenic substrate, Benzyloxycarbonyl--Phe--Arg--AMC (100 μM).
After incubation for various periods of time at 37° C., the concentration of free AMC was determined on a Fluoroskan II spectrofluorimeter with an excitation filter of 390 nm and an emission filter of 460 nm. Protease activity was determined under conditions in which substrate hydrolysis increased linearly with time and the change in fluorescence was proportional to the concentration of free AMC. […]

control soleus muscle = test: Effect of MCP inhibitors on control muscle protein content; format: in vivo, rat; conditions: Table 1; treated soleus versus vehicle-injected contralateral muscle
Source text: as §1, §2, §3
as §4, with “A paired student test was also performed for the effect of each separate treatment. The non-treated control data also provided an estimate of protein content of day 2. This allowed approximation of the protein changes over the 24 hours of treatment for each of the Groups B, C, and D.” left out

[2] = system: Ile113→Thr mutant SOD-1 in human 293 cells; test: SOD-1 levels in transiently transfected 293 cells (immunoblot); conditions: 5 μM, 24 hours, FIG. 5
Description: The human kidney cell line designated 293 (human 293 cells or 293 cells)was obtained from the American Type Culture Collection (ATCC), 12301 Parklawn Drive, Rockville, Md., 20852 (ATCC #CRL 1573) and grown in Dulbecco's modified Eagle's medium with 4.6 g/L glucose, 10% heat-inactivated horse serum (Gibco/Life Technologies Inc. Gaithersburg, Md.). The human 293 cells were maintained at 37° C. in an atmosphere of 5% CO2. The 293 cells were transiently transfected using the calcium phosphate method (Chen, C. et al., Biotechniques 6: 632 (1988). The pCMV-113 SOD-1 expression vector was introduced into 293 cells and 24 hours later, the cells were incubated with either compound 34, compound 14, or compound 24, all at a concentration of 5 μM, for a duration of 24 hours. The known MCP and other protease inhibitory compounds were solubilized in dimethyl sulfoxide (DMSO). Other 293 cell cultures were incubated with an equal volume of DMSO or left in medium only as negative controls.
Approximately 48 hours prior to receiving test compounds, 5×10^5 293 cells were seeded in 36 mm dishes and maintained at 37° C. in an atmosphere of 5% CO2. Cells were incubated with MCP inhibitors (compound 34, 14 or 24) or with DMSO as a negative control for a duration of 24 hours. Cell lysates were prepared by lysing the cells in approximately 75 μl of phosphate-buffered saline (PBS) by freeze/thaw cycling. Protein concentrations of the cell lysates were determined using the BCA method (Pierce, Rockford, Ill.) and 2 to 2.5 μg of each sample was electrophoresed on a 4-20% polyacrylamide geol (Novex, San Diego, Calif.) using a Tris/glycine/SDS (25 mM Tris/192 mM glycine/0.1% SDS) buffer system. […] Stained bands corresponding to SOD-1 protein were quantitated using a DocuGel V image analysis system and RFLPscan software (Scanalytics, Billerica, Mass.). Levels of SOD-1 are expressed as units of induction relative to the negative control (i.e., units of experimental divided by units of control).

Structure (SMILES) | Protein, End (day 3 of unweighting) [1] [mg/muscle] | Effect (%), change in protein content during day 3 of unweighting [1] | Effect (%) on unweighted muscle protein [1] [%] | Protein, Treatment (unweighted muscle) [1] [mg/muscle] | IC50 (human MCP) [nM] | Protein, Treatment (control muscle) (control soleus muscle) [mg/muscle] | SOD-1 levels compared to controls [2]
COC(CNC(=O)c1ccccc1OCC(=O)O)[CH2][Hg][OH] (stereo not drawn) [Mersalyl, reference compound] | 6.6 | +3% | 14 | 6.6 |  |  | 
CC(C)C[C@@H](C=NNC(N)=O)NC(=O)[C@H](CCCNC(=N)N[N+](=O)[O-])NC(=O)C(CCCCCCCCC#N)C1CCCC1 (stereo partly drawn) [Compound 16, 10-cyano-2-cyclopentyl-decanoyl-N g-nitro-L-arginyl-L-leucinal semicarbazone] | 6.0 | -5% | 0 | 6.0 | 100 |  | 
COC(=O)CCCCCCCC(=O)N[C@@H](CCCN=C(N)NS(=O)(=O)c1c(C)cc(OC)c(C)c1C)C(=O)N[C@H](C=O)CC(C)C [Compound 34, Monomethylazelayl-N^g-(4-methoxy,2,3,6-trimethylbenzene-1-sulfonyl)-L-arginyl-L-leucinal] | 6.6 | +5% | 12 | 6.6 | 80 | 6.3 | modestly elevated
CC(C)C[C@@H](C=O)NC(=O)[C@H](CCCNC(=N)N[N+](=O)[O-])NC(=O)C(CCCCCCCCN1C(=O)c2ccccc2C1=O)C1CCCC1 (stereo partly drawn) [Compound 24, 2-cyclopentyl-10-N-phthalimido-decanoyl-N^g-nitro-L-arginyl-L-leucinal] |  |  |  |  | 2 |  | modestly elevated
